Data from paper PMC8249445, “Complex effects of macrolide venturicidins on bacterial F-ATPases likely contribute to their action as antibiotic adjuvants” (Scientific Reports, 2021).
Read-outs that look alike come from different tables or passages of the source.

What was measured:
[1] = system: mitoFOF1; design: method as in PMID 124668; conditions: cited from earlier work
[2] = system: FOF1 in membranes from P. denitrificans; design: method as in PMID 10672007; conditions: cited from earlier work
[3] = system: E. coli; design: method as in PMID 32424122; conditions: complex growth medium; cited from earlier work
[4] = molecular target: T1, FOF1-ATPase of WT E. coli membranes (Escherichia coli, UniProt P68699); assay: biochemical; format: biochemical; conditions: for ATPase rate, Early / ATPase rate, Late / Late/early ratio: 10 µM ventA final; for Ki: VentA at half-max. inhibition (Ki), early inhibition
T1 construct: To express haploid levels of EcFOF1 containing WT-ε or ε88-stop; expressed in transfected cells; host or cells: E. coli strain XH1 (chromosomal atpC deletion) carrying pMBε1; inverted membrane vesicles
Protocol: ATP hydrolysis is enzyme-coupled to conversion of NADH to NAD^+, which results in decreased light absorbance; thus, a larger rate of ATP hydrolysis is indicated by a steeper downward slope. The system also rapidly regenerates ATP, minimizing the concentration of product ADP during the assay. Unless noted, assays were preincubated to establish a steady state hydrolysis rate (see “Methods”) before the ‘zero’ point of measurements.
Plasmid pXH302S, which encodes the WT atpC gene and expresses near haploid levels of the ε subunit, was subjected to fusion PCR mutagenesis to construct plasmid pMBε1, with an N-terminal affinity tag ([…]) added prior to the initial Met residue. To express the ε88-stop subunit, an AfeI-ScaI restriction fragment of WT pMBε1 was replaced by the analogous fragment from pH6ε88-stop[46]. To express haploid levels of EcFOF1 containing WT-ε or ε88-stop, the appropriate version of pMBε1 was transformed into E. coli strain XH1, which has a chromosomal deletion of the atpC gene for ε[54]. For these transformed strains, cultures were grown and inverted membrane vesicles (IMV) were prepared according to [55]. WT ε, with the same N-terminal His6-tag, was over-expressed from pH6ε and purified as described.
ATP hydrolysis by membrane vesicles was assayed spectrophotometrically[57] at 30 °C using an open-chamber, diode array spectrophotometer (Hewlett Packard 8453 UV–Vis) as described in[29]. The assay medium (1 ml per assay) contained 20 mM Mops/Tris, pH 8.0, 0.2 mM EDTA, 10 mM CH3COOK, 1 mM ATP, 3.2 mM Mg(CH3COO)2, 1 mM phosphoenolpyruvate, at least 0.3 mM NADH, 0.1 mg/ml pyruvate kinase, 0.1 mg/ml lactate dehydrogenase, 5 mM KCN, and 5 μM carbonyl cyanide 4-(trifluoromethoxy)-phenylhydrazone. […] To avoid interference of this increase with the changes of ATPase activity induced by venturicidins, unless indicated otherwise, measurement of ATPase activities were started 60 min after addition of membranes to the complete assay medium. […] To keep absorbance between 1.5 and 2 units after the 60-min preincubation, up to 0.2 mM additional NADH was added to the assay medium. In figures displaying activity traces, some traces are shifted vertically for visual clarity.

[5] = system: S. aureus (MRSA) strains; conditions: cited from earlier work
[6] = preincubation +MgATP, no ventA, selenite
[7] = preincubation No MgATP, +ventA (trace 2), 40 mM selenite
[8] = WT + 6 μM azide (Fig. 2C), best fit of early rates
[9] = WT + 38.5 mM selenite (Fig. 2B), best fit of early rates

For `CCC(=O)C(C)C(O)C(C)CC(C)C1OC(=O)CC2(O)CC=C(C)C(O2)C(C)=CCCCC(OC2CC(OC(N)=O)C(O)C(C)O2)C=CC(C)CC1C` (stereo not shown) [ventA, venturicidin A], the “Stimulation of solubilized ATPase” value ([1]; detergent-solubilized mitoFOF1) is listed as “up to 3 fold”, the “Inhibition of membrane ATPase” value ([1]; mitoFOF1 in membranes) is listed as 95% and the “Sensitivity of ATPase to ventA inhibition, sulfite-activated vs PMF-activated FOF1” value [2] is listed as “~ threefold”. For the same compound, the Adjuvant action [3] was “minimal adjuvant action”, the “Late rate (last 3 min of assay)” value ([4]; 9.5 μM ventA, 38.5 mM selenite (Fig. 5A #3)) was 2.7 U/mg and the “Rate during 100 s immediately before adding ε” value ([4]; 9.5 μM ventA, 38.5 mM selenite (Fig. 5A trace #4)) was 2.5 U/mg. For the same compound, the “ATPase rate, Early” value [4, 6] was 1.27 U/mg, the “ATPase rate, Late” value [4, 6] was 2.97 U/mg and the Late/early ratio [4, 6] was 2.34. For the same compound, the “ATPase rate, Early” value [4, 7] was 1.22 U/mg, the “ATPase rate, Late” value [4, 7] was 2.93 U/mg and the Late/early ratio [4, 7] was 2.40. The “Decrease of initial ATPase rate” value ([4]; 30 min preincubation with 10 μM ventA without ATP, selenite present) was “about 40%”, the Ki ([4]; WT + 6 μM azide (Fig. 2C)) was 1700 nM and the Ki ([4]; WT + 38.5 mM selenite (Fig. 2B)) was 230 nM. For the same compound, the Ki ([4]; WT, alone (Fig. 2A)) was 700 nM, the “ATPase at saturating ventA (y0)” value [4, 8] was 36% (± 4) and the “VentA-sensitive ATPase (y1)” value [4, 8] was 106% (± 5). For the same compound, the “ATPase at saturating ventA (y0)” value [4, 9] was 53% (± 1), the “VentA-sensitive ATPase (y1)” value [4, 9] was 46% (± 2) and the “Sensitivity to immediate inhibition, selenite vs azide” value ([4]; WT EcFOF1, MgADP-inhibited state minimized by selenite vs increased by azide) was “~ sevenfold”. For the same compound, the “Increase of early Ki value by azide” value ([4]; WT, 6 µM azide vs none) was 2.4 fold, the “ATPase at saturating ventA (y0)” value ([4]; WT, alone (Fig. 2A), best fit of early rates) was 47% (± 2) and the “VentA-sensitive ATPase (y1)” value ([4]; WT, alone (Fig. 2A), best fit of early rates (within 1 min after adding ventA)) was 80% (± 5). The “Reduction of Ki for early inhibition by selenite” value ([4]; WT, with vs without selenite) was “threefold”, the “Immediate increase in ATPase rate, first minute post-addition” value ([4]; lower ventA concentration (Fig. 1, trace 2), no effector) was 11% and the inhibition at 10 µM ([4]; read-out: Additional time-dependent inhibition) was about 25%. For the same compound, the “ATPase activity during the last 3 min of assays” value ([4]; ventA added after 0.1 mM DCCD (trace 3, 15 μM ventA), no selenite) was 0.49 (± 0.06) U/mg, the “ATPase activity during the last 3 min of assays” value ([4]; ventA added before 0.1 mM DCCD (trace 2, 10 μM ventA), no selenite) was 0.53 (± 0.05) U/mg and the “ATPase activity during the last 3 min of assays” value ([4]; ventA after 0.1 mM DCCD (trace 3, 15 μM ventA), 38.5 mM selenite) was 2.84 U/mg. For the same compound, the “ATPase activity during the last 3 min of assays” value ([4]; ventA before 0.1 mM DCCD (trace 2, 10 μM ventA), 38.5 mM selenite) was 2.93 U/mg, the “Reduction of cellular ATP” value ([5]; 16 μg ventA/ml) was ~ 40% and the “Concentration at which maximal effect on Δψ was achieved” value ([5]; MRSA strain tested further) was 16 μg ventA/ml. The “Reduction of cellular ATP” value ([5]; fourfold greater ventA than 16 μg/ml) was ~ 90%.
